Experimental data taken from US5622839A (ZymoGenetics, Inc., priority 1995, dated 1997).

Columns and labels:
[1] = molecular target: T1, human calcitonin receptor (Homo sapiens, UniProt P30988); experiment: [Ca2+]i response of BHK cells expressing cloned calcitonin receptor to calcitonin and extracellular calcium (fura-2); assay type: cell-based; conditions: for average peak [Ca2+]i response vs receptor number: each cell line expressing the calcitonin receptor
T1 construct: Hollex encoded a protein of 474 amino acids; expressed in transfected cells; host or cells: BHK 570 / BHK/KZ10-20-48 (baby hamster kidney) stably transfected with pHollex
T1 sequence (P30988 25-474): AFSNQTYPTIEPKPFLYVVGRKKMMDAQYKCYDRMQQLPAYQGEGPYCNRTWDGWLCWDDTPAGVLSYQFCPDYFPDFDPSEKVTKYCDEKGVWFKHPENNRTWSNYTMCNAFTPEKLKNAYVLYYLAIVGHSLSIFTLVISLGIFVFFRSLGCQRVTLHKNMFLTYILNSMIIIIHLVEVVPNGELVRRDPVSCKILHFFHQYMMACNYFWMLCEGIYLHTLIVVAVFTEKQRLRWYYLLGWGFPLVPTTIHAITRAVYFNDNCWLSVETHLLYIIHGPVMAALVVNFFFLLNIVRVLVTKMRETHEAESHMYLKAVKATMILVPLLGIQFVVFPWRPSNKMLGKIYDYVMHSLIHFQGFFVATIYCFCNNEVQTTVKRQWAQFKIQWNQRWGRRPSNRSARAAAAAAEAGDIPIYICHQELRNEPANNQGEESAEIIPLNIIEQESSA
Description: (§1) BHK cells expressing the cloned calcitonin receptor were assayed to determine their response to extracellular calcium. Cells were washed three times with a buffer (140 mM NaCl, 5 mM KCl, 0.5 mM MgCl2, 0.5 mM CaCl2 (concentration varied in some experiments), 10 mM glucose, 10 mM HEPES, pH 7.4) made using high purity salts (Aldrich, Milwaukee, Wis.) and sterile water (Baxter, McGaw Park, Ill.). Cells were loaded with fura-2 AM (Molecular Probes Inc.) (10 μg/ml) for 30 minutes essentially as described above, then washed an additional three times. Slides were mounted at room temperature on an inverted microscope (EPIPHOT, Nikon), and a field of cells (typically 20-30 cells) was located using a 40× Nikon fluor objective. The ratio of fura-2 emission at excitation wavelengths of 340 and 380 nm was recorded every 5 seconds. Individual cells were analyzed on a computer workstation (Sun Microsystems) using a software system designed for ratio imaging (Inovision). The concentration of calcium chloride in buffers was determined by comparison to calcium standards on a calcium analyzer (Nova Biomedical Corp. Waltham, Mass.). All experiments were reproduced three to eight times. Fura-2 ratio 340 nm to 380 nm values (R) were converted to [Ca^2+ ]i concentrations after calibration of the instrument using the formula: calcium (nm)=2240[R-0.3)/(20-R)]. Basal [Ca^2+ ]i concentrations were typically 80-150 nm. The peak fura-2 ratios 340/380 of individual cells exposed to 20 nm salmon calcitonin followed by 25 mM calcium chloride were averaged for some experiments and converted to [Ca^2+ ]i concentrations. Standard error was calculated at a 99% level using a Z score of 2.58 (n>30).

[2] = tested on: Control BHK cell lines; experiment: [Ca2+]i response of control (calcitonin receptor-negative) BHK cells to extracellular calcium; assay type: cell-based, baby hamster
Description: as §1, with “Fura-2 ratio 340 nm to 380 nm values (R) were converted to [Ca^2+ ]i concentrations after calibration of the instrument using the formula: calcium (nm)=2240[R-0.3)/(20-R)]. Basal [Ca^2+ ]i concentrations were typically 80-150 nm. The peak fura-2 ratios 340/380 of individual cells exposed to 20 nm salmon calcitonin followed by 25 mM calcium chloride were averaged for some experiments and converted to [Ca^2+ ]i concentrations.” left out

[3] = molecular target: T1, human calcitonin receptor; experiment: Intracellular calcium response of Hollex1/Hollex2 cells (fura-2 imaging); assay type: cell-based
[4] = tested on: bone resorption; conditions: patients given long term treatment; Azria 1989; cited from earlier work
[5] = tested on: BHK/Zem228R; experiment: Binding/competition assay with BHK/Zem228R cells (negative control); parameters: species or system baby hamster
Description: A pool of transfectants expressing the plaex 1 was tested for receptor-mediated binding to calcitonin using a competition assay. Hollex1 was used as a positive control and BHK cells transfected with Zem228R were used as a negative control.
The cells were plated at a density of 1×10^5 cells/well in a 24-well cell culture dish and allowed to grow for 48 hours at 37° C. and 5% CO2 in growth medium (described in previous examples). The cells were rinsed in binding medium as described in Example IIE. Three hundred microliters of hot binding medium containing 10 nM hCT and 5 μCi/ml ^125 I hCT. Cold competition was achieved by adding unlabelled hCT to a final concentration of 1 μM were added to appropriate wells. The cells were incubated 1.5 hours at room temperature. Unincorporated radioactivity was removed by three washes with PBS. Five hundred microliters of 1N NaOH was added to each well to solublize the cells. Each sample was counted on a gamma counter.

[6] = 25 mM extracellular calcium chloride, about 700,000 receptors/cell
[7] = cell lines expressing 100,000 and 150,000 receptors/cell

For `[Cl-].[K+]` [KCl], the “[Ca2+]i response to 73 mM KCl” value ([1]; instead of CaCl2, about 700,000 receptors/cell) was “no effect”.

For `[Ca+2].[Cl-].[Cl-]` [calcium chloride], the “magnitude of [Ca2+]i response relative to that induced by calcitonin” value [1, 6] was “comparable to that induced by calcitonin”, the “time for response to return to an elevated basal level” value [1, 6] was “about 20 minutes” and the “effect of calcitonin pretreatment on magnitude of response to extracellular calcium” value ([1]; 25 mM, about 700,000 receptors/cell, p<0.01) was “not significantly altered”. The “concentration of maximum response” value ([1]; 700,000 receptors/cell) was “approximately 14 mM”, the EC50 ([1]; 700,000 receptors/cell, double reciprocal plot, read-out: effective concentration for half-maximal response) was 8 to 10 mM and the “smallest increase in extracellular calcium giving a significant response” value ([1]; 700,000 receptors/cell, increase over basal (1.3 mM)) was 2 mM. For the same compound, the “[Ca2+]i response to millimolar increases in extracellular calcium” value ([1]; BHK cells expressing recombinant calcitonin receptor) was “rapid and sustained elevation in [Ca^2+ ]i”, the “[Ca2+]i response to 25 mM extracellular calcium for two minutes followed by continuous wash” value ([1]; about 700,000 receptors/cell) was “rapid and transient increase in [Ca^2+ ]i” and the “[Ca2+]i response to 25 mM extracellular calcium chloride” value ([1]; about 700,000 receptors/cell, with or without calcitonin pretreatment) was “rapid and sustained increase in [Ca2+ ]i”. The “[Ca2+]i response” value [1, 7] was “increases in [Ca^2+ ]i”, the “average peak [Ca2+]i response vs receptor number” value [1] was “proportional to the average number of receptors per cell” and the “response to extracellular calcium” value ([2]; Control BHK cell lines) was “no response”. The “sensitivity to changes in extracellular calcium” value ([2]; three calcitonin receptor-negative BHK cell lines) was “no sensitivity”.

With calcitonin the “cells with a calcium response” value ([3]; Hollex1 cells) was 30-70%, the “cells with a calcium response” value ([3]; Hollex2 cells) was 1-5% and the “[Ca2+]i response” value [1, 7] was “increases in [Ca^2+ ]i”. For the same compound, the “effect of calcitonin pretreatment on response to extracellular calcium” value [1, 7] was “marked potentiation”, the “average peak [Ca2+]i response vs receptor number” value [1] was “proportional to the average number of receptors per cell” and the “resistance cases not accompanied with antibody formation” value [4] was “approximately 50%”.

“human calcitonin: human calcitonin (hCT), natural peptide hormone ligand of the calcitonin receptor” gave a hot ([5]; 10 nM hCT and 5 μCi/ml 125I hCT) of 147 cpm and a hot/cold ([5]; plus unlabelled hCT 1 μM) of 105 cpm.
